The results in this text go back to PMC8808171, “Nonselective TRPC channel inhibition and suppression of aminoglycoside-induced premature termination codon readthrough by the small molecule AC1903” (The Journal of Biological Chemistry, 2022).

Assay [1] has as its target T1, TRPC4 (Homo sapiens, UniProt Q9UBN4).
T1 construct: expressed in transfected cells; host or cells: HEK T-REx (tetracycline-induced)
Nature of the assay: Whole-cell patch-clamp recordings of EA-activated TRPC4 currents in HEK T-REx cells. It counts as cell-based. The settings on record: EA 30 nM. As for the experimental part:
B) Representative current–voltage relationship for one (Tet+) HEK T-Rex cell expressing TRPC4, showing current after activation by EA (30 nM) and subsequent inhibition by addition of AC1903 (10 μM). C, quantified data from experiments represented by (A) (scatter plots showing current amplitudes at +100 mV (black circles) or −100 mV (white circles) from three independent experiments; bars represent mean ± SD; n = 3). ∗ indicates statistically significant difference between samples according to paired t test (p < 0.05). EA, (-)-englerin A; TRPC, transient receptor potential canonical.
For electrophysiology experiments, cells were plated at a low density of 20 to 30% onto round coverslips (13 mm diameter or 5 × 5 mm), and TRPC4 expression in HEK T-REx was induced with 1 μg ml^−1 tetracycline 24 h before experimentation. Experiments were carried out at room temperature. […] The patch-clamp currents were recorded using an Axopatch 200B amplifier, digitized by a Digidata 1440 and recorded to a computer using pCLAMP10 (Molecular Devices). The data were filtered at 1 kHz and analyzed offline using Clampfit 10.7 software and Origin 2019b software (OriginLab). […]
Inhibition of G418-induced premature stop codon readthrough […]
On the technique in general: The patch-clamp technique gives a direct electrical read-out from membranes.

Assay [2] concerns the target T2, TRPV4:V4 (Homo sapiens, UniProt Q9HBA0).
T2 construct: expressed in transfected cells
Nature of the assay: [Ca2+]i recordings (Fura-2), TRPV4:V4 in CHO cells. In kind it is cell-based. The conditions noted are these: activator 4α-PDD. As for the experimental part: Based on the findings described above, we wondered whether AC1903—which is typically used as a TRPC5 inhibitor at concentrations of 30–100 μM in cellular assays ([29], [56])—might have limited selectivity for TRPC5 channels and whether its effect on intracellular G418 levels and PTC readthrough might be the consequence of inhibition of other or multiple targets. All well-characterized TRPC channel inhibitors reported to date modulate multiple TRP(C) channels ([34], [35], [36]). […] Because limited data for the selectivity of AC1903 are available in the public domain, we decided to profile AC1903 against a selection of calcium-permeable cation channels by intracellular calcium ([Ca^2+]i) recordings using well-characterized cell lines and TRP channel activators ([46], [57], [58]), and the Ca^2+ indicator Fura-2. In these assays, cells (HEK 293, HEK T-REx, or CHO) overexpressing the relevant ion channel protein and loaded with Fura-2 AM (a cell-permeable precursor of Fura-2) were preincubated with various concentrations of AC1903 or vehicle (DMSO) for 30 min. Then, changes in ratiometric fluorescence (from background) were recorded upon addition of the respective ion channel activator. […]

T1 sequence (Q9UBN4 1-893 isoform Q9UBN4-2): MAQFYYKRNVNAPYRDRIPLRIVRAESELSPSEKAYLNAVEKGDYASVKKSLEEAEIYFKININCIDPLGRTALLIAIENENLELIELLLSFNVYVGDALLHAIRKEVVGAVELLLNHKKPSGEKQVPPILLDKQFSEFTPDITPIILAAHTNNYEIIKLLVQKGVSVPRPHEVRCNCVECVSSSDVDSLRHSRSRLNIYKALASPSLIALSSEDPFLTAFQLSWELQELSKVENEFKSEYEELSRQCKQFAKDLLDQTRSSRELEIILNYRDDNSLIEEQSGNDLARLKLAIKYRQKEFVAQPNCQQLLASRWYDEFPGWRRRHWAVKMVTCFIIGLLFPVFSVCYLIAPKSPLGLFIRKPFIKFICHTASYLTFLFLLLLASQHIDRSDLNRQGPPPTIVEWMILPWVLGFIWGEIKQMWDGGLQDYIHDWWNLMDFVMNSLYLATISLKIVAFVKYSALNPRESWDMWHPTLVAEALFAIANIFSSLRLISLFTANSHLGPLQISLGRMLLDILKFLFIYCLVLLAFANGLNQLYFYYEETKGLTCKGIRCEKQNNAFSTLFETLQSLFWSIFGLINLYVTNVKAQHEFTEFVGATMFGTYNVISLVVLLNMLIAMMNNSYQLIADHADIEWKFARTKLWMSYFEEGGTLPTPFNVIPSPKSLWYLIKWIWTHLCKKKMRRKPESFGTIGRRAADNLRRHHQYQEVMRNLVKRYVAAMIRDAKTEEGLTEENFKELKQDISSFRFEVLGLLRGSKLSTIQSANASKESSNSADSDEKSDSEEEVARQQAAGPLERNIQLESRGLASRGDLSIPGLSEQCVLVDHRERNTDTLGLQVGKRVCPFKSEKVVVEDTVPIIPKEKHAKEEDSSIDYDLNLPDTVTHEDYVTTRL
T2 sequence (Q9HBA0 whole entry): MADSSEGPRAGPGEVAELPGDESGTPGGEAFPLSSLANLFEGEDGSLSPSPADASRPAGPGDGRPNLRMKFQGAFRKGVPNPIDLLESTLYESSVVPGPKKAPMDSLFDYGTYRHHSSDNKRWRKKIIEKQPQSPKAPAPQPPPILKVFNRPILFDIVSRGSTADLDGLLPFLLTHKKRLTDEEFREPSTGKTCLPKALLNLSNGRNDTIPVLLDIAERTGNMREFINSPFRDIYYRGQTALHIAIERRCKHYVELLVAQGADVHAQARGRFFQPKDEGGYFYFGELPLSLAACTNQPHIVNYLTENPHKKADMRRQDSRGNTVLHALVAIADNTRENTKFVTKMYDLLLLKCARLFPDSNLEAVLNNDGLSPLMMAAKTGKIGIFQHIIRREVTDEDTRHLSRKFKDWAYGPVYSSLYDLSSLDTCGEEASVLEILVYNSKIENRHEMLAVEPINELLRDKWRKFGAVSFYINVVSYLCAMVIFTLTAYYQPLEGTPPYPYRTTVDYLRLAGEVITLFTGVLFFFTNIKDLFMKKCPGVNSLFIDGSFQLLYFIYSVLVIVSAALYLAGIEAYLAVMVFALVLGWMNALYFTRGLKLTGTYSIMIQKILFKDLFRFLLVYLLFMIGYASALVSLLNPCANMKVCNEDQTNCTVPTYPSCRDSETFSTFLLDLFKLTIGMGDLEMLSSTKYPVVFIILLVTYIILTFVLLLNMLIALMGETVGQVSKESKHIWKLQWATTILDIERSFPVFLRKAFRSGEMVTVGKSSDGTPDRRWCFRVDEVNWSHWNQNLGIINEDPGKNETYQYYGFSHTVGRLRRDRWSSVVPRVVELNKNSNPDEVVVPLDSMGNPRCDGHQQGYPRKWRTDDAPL

As for `c1ccc(Cn2c(NCc3ccco3)nc3ccccc32)cc1` [AC1903], the “inhibition of EA-activated currents” value in assay [1] (10 μM AC1903, whole-cell patch clamp) was “fully and reversibly inhibited”. The “inhibition of EA-activated TRPC4 currents, cumulative addition” value in assay [1] (AC1903 0.3–30 μM) is “concentration-dependent inhibition”. Further, the IC50 in assay [2] (CHO) was 19 µM. The Hill slope in assay [2] is on record as -1.7.

In general, IC50 refers to the midpoint of a concentration-inhibition curve. The Hill slope is the slope factor of the fitted curve.
